Laboratory results reported in the NIST ThermoML archive (doi:10.1021/je900550v).
Numbers after ± are expanded uncertainties.

Details: 101.33 kPa, Liquid; for speed of sound: Pulse-echo method; for mass density: Vibrating tube method

C[NH2+]CCO.O=C[O-] [2-hydroxy-N-methylethanaminium formate]
Details	mass density [kg/m3]	speed of sound [m/s]	viscosity [mPa·s]
278.15 K	1139.41 ± 2.3	1854.7 ± 2.2	–
278.4 K	1139.26 ± 2.3	1854.2 ± 2.2	–
278.65 K	1139.13 ± 2.3	1853.7 ± 2.2	–
278.9 K	1138.99 ± 2.3	1853.2 ± 2.2	–
279.15 K	1138.85 ± 2.3	1852.7 ± 2.2	–
279.4 K	1138.71 ± 2.3	1852.2 ± 2.2	–
279.65 K	1138.58 ± 2.3	1851.7 ± 2.2	–
279.9 K	1138.44 ± 2.3	1851.2 ± 2.2	–
280.15 K	1138.3 ± 2.3	1850.7 ± 2.2	–
280.4 K	1138.16 ± 2.3	1850.2 ± 2.2	–
280.65 K	1138.02 ± 2.3	1849.7 ± 2.2	–
280.9 K	1137.88 ± 2.2	1849.2 ± 2.2	–
281.15 K	1137.73 ± 2.2	1848.7 ± 2.2	–
281.4 K	1137.6 ± 2.2	1848.2 ± 2.2	–
281.65 K	1137.46 ± 2.2	1847.7 ± 2.2	–
281.9 K	1137.32 ± 2.2	1847.2 ± 2.2	–
282.15 K	1137.18 ± 2.2	1846.8 ± 2.2	–
282.4 K	1137.04 ± 2.2	1846.3 ± 2.2	–
282.65 K	1136.9 ± 2.2	1845.8 ± 2.2	–
282.9 K	1136.77 ± 2.2	1845.3 ± 2.2	–
283.15 K	1136.62 ± 2.2	1844.8 ± 2.2	–
283.4 K	1136.49 ± 2.2	1844.3 ± 2.2	–
283.65 K	1136.35 ± 2.2	1843.8 ± 2.2	–
283.9 K	1136.21 ± 2.2	1843.3 ± 2.2	–
284.15 K	1136.07 ± 2.2	1842.8 ± 2.2	–
284.4 K	1135.93 ± 2.2	1842.3 ± 2.2	–
284.65 K	1135.79 ± 2.2	1841.8 ± 2.2	–
284.9 K	1135.65 ± 2.2	1841.3 ± 2.2	–
285.15 K	1135.51 ± 2.2	1840.8 ± 2.2	–
285.4 K	1135.37 ± 2.2	1840.3 ± 2.2	–
285.65 K	1135.23 ± 2.2	1839.8 ± 2.2	–
285.9 K	1135.09 ± 2.2	1839.3 ± 2.2	–
286.15 K	1134.95 ± 2.2	1838.9 ± 2.2	–
286.4 K	1134.81 ± 2.2	1838.4 ± 2.2	–
286.65 K	1134.67 ± 2.2	1837.9 ± 2.2	–
286.9 K	1134.53 ± 2.2	1837.4 ± 2.2	–
287.15 K	1134.39 ± 2.2	1836.9 ± 2.2	–
287.4 K	1134.25 ± 2.2	1836.4 ± 2.2	–
287.65 K	1134.11 ± 2.2	1835.9 ± 2.2	–
287.9 K	1133.97 ± 2.2	1835.4 ± 2.2	–
288.15 K	1133.84 ± 2.2	1834.9 ± 2.2	34.2
288.4 K	1133.69 ± 2.2	1834.4 ± 2.2	–
288.65 K	1133.55 ± 2.2	1833.9 ± 2.2	–
288.9 K	1133.41 ± 2.2	1833.4 ± 2.2	–
289.15 K	1133.28 ± 2.2	1833 ± 2.2	–
289.4 K	1133.13 ± 2.2	1832.5 ± 2.2	–
289.65 K	1133 ± 2.2	1832 ± 2.2	–
289.9 K	1132.86 ± 2.2	1831.5 ± 2.2	–
290.15 K	1132.72 ± 2.2	1831 ± 2.2	–
290.4 K	1132.58 ± 2.2	1830.5 ± 2.2	–
290.65 K	1132.44 ± 2.2	1830 ± 2.2	30.15
290.9 K	1132.3 ± 2.2	1829.5 ± 2.2	–
291.15 K	1132.16 ± 2.2	1829 ± 2.2	–
291.4 K	1132.01 ± 2.2	1828.5 ± 2.2	–
291.65 K	1131.88 ± 2.2	1828 ± 2.2	–
291.9 K	1131.74 ± 2.2	1827.5 ± 2.2	–
292.15 K	1131.6 ± 2.2	1827 ± 2.2	–
292.4 K	1131.46 ± 2.2	1826.6 ± 2.2	–
292.65 K	1131.32 ± 2.2	1826.1 ± 2.2	–
292.9 K	1131.18 ± 2.2	1825.6 ± 2.2	–
293.15 K	1131.04 ± 2.2	1825.1 ± 2.2	26.05
293.4 K	1130.9 ± 2.2	1824.6 ± 2.2	–
293.65 K	1130.76 ± 2.2	1824.1 ± 2.2	–
293.9 K	1130.62 ± 2.2	1823.6 ± 2.2	–
294.15 K	1130.48 ± 2.2	1823.2 ± 2.2	–
294.4 K	1130.34 ± 2.2	1822.7 ± 2.2	–
294.65 K	1130.2 ± 2.2	1822.2 ± 2.2	–
294.9 K	1130.06 ± 2.2	1821.7 ± 2.2	–
295.15 K	1129.92 ± 2.2	1821.2 ± 2.2	–
295.4 K	1129.78 ± 2.2	1820.7 ± 2.2	–
295.65 K	1129.64 ± 2.2	1820.2 ± 2.2	23.22
295.9 K	1129.5 ± 2.2	1819.7 ± 2.2	–
296.15 K	1129.37 ± 2.2	1819.2 ± 2.2	–
296.4 K	1129.23 ± 2.2	1818.7 ± 2.2	–
296.65 K	1129.08 ± 2.2	1818.2 ± 2.2	–
296.9 K	1128.94 ± 2.2	1817.7 ± 2.2	–
297.15 K	1128.8 ± 2.2	1817.3 ± 2.2	–
297.4 K	1128.66 ± 2.2	1816.8 ± 2.2	–
297.65 K	1128.52 ± 2.2	1816.3 ± 2.2	–
297.9 K	1128.38 ± 2.2	1815.8 ± 2.2	–
298.15 K	1128.25 ± 2.2	1815.3 ± 2.2	20.27
298.4 K	1128.11 ± 2.2	1814.8 ± 2.2	–
298.65 K	1127.96 ± 2.2	1814.3 ± 2.2	–
298.9 K	1127.83 ± 2.2	1813.8 ± 2.2	–
299.15 K	1127.69 ± 2.2	1813.4 ± 2.2	–
299.4 K	1127.55 ± 2.2	1812.9 ± 2.2	–
299.65 K	1127.41 ± 2.2	1812.4 ± 2.2	–
299.9 K	1127.27 ± 2.2	1811.9 ± 2.2	–
300.15 K	1127.13 ± 2.2	1811.4 ± 2.2	–
300.4 K	1126.99 ± 2.2	1810.9 ± 2.2	–
300.65 K	1126.85 ± 2.2	1810.4 ± 2.2	18.37
300.9 K	1126.71 ± 2.2	1809.9 ± 2.2	–
301.15 K	1126.57 ± 2.2	1809.5 ± 2.2	–
301.4 K	1126.43 ± 2.2	1809 ± 2.2	–
301.65 K	1126.29 ± 2.2	1808.5 ± 2.2	–
301.9 K	1126.15 ± 2.2	1808 ± 2.2	–
302.15 K	1126.02 ± 2.2	1807.5 ± 2.2	–
302.4 K	1125.87 ± 2.2	1807 ± 2.2	–
302.65 K	1125.73 ± 2.2	1806.5 ± 2.2	–
302.9 K	1125.59 ± 2.2	1806 ± 2.2	–
303.15 K	1125.45 ± 2.2	1805.6 ± 2.2	16.4
303.4 K	1125.32 ± 2.2	1805.1 ± 2.2	–
303.65 K	1125.18 ± 2.2	1804.6 ± 2.2	–
303.9 K	1125.04 ± 2.2	1804.1 ± 2.2	–
304.15 K	1124.89 ± 2.2	1803.6 ± 2.2	–
304.4 K	1124.76 ± 2.2	1803.2 ± 2.2	–
304.65 K	1124.62 ± 2.2	1802.7 ± 2.2	–
304.91 K	1124.48 ± 2.2	1802.2 ± 2.2	–
305.15 K	1124.34 ± 2.2	1801.7 ± 2.2	15.1
305.4 K	1124.2 ± 2.2	1801.2 ± 2.2	–
305.65 K	1124.06 ± 2.2	1800.7 ± 2.2	–
305.9 K	1123.92 ± 2.2	1800.2 ± 2.2	–
306.15 K	1123.78 ± 2.2	1799.7 ± 2.2	–
306.4 K	1123.64 ± 2.2	1799.3 ± 2.2	–
306.65 K	1123.5 ± 2.2	1798.8 ± 2.2	–
306.9 K	1123.36 ± 2.2	1798.3 ± 2.2	–
307.15 K	1123.22 ± 2.2	1797.8 ± 2.2	–
307.4 K	1123.08 ± 2.2	1797.3 ± 2.2	–
307.65 K	1122.94 ± 2.2	1796.8 ± 2.2	–
307.9 K	1122.8 ± 2.2	1796.3 ± 2.2	–
